Reference: patent US20260274832A1, “COMPOUNDS AND THEIR USE IN TREATING CANCER” (ASTRAZENECA AB, priority 2023, published 2026)

Tests used:
[1] = biological target: T1, AR (AR-full length) in LNCaP cells (Homo sapiens, UniProt P10275, T878A); test: LNCaP Androgen Receptor Imaging Assay (immunofluorescence of endogenous nuclear AR); format: cell-based; conditions: 24 h incubation; for DC50: concentration giving 50% of maximum degradation of AR per curve fit, single experiment or average of two or more; for Dmax: LNCaP, maximum degradation observed, normalized as % of positive control (prior art AR PROTAC at 3 μM)
T1 construct: the prostate cancer cell line LNCaP (expressing AR-full length); endogenous in cells; host or cells: LNCaP
Summary of the method: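 Endogenous nuclear AR level was imaged by immunofluorescence after 24 h compound exposure (12-point dose response, 0.3% DMSO, 37° C./5% CO2) in LNCaP cells. Data were expressed as % of a 3 μM prior-art AR PROTAC control and fitted (bell fit where a hook appeared) to give DC50 and maximum degradation Dmax.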

[2] = biological target: T2, AR (L702H) in LNCaP cells (Homo sapiens, UniProt P10275, L702H/T878A); test: LNCaP Androgen Receptor L702H Imaging Assay (LNCaP cells engineered by CRISPR/Cas9); format: cell-based; conditions: LNCaP cells with AR L702H mutation, 24 h incubation; for DC50: concentration giving 50% of maximum degradation of AR (L702H) per curve fit; for Dmax: LNCaP, maximum degradation observed, normalized as % of positive control
T2 construct: engineered to introduce the mutation L702H into the AR gene using CRISPR/Cas9; endogenous in cells; host or cells: LNCaP cells edited by CRISPR/Cas9 at the AR gene
Summary of the method: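 AR (L702H) degradation, expressed as DC50 and Dmax from curve fits normalized to a positive degrader control, was measured by high-content imaging of anti-AR immunofluorescence. The engineered LNCaP line was dosed over 12 concentrations for 24 h, 0.3% DMSO final, before PFA fixation.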

T1 sequence (P10275 whole entry T878A): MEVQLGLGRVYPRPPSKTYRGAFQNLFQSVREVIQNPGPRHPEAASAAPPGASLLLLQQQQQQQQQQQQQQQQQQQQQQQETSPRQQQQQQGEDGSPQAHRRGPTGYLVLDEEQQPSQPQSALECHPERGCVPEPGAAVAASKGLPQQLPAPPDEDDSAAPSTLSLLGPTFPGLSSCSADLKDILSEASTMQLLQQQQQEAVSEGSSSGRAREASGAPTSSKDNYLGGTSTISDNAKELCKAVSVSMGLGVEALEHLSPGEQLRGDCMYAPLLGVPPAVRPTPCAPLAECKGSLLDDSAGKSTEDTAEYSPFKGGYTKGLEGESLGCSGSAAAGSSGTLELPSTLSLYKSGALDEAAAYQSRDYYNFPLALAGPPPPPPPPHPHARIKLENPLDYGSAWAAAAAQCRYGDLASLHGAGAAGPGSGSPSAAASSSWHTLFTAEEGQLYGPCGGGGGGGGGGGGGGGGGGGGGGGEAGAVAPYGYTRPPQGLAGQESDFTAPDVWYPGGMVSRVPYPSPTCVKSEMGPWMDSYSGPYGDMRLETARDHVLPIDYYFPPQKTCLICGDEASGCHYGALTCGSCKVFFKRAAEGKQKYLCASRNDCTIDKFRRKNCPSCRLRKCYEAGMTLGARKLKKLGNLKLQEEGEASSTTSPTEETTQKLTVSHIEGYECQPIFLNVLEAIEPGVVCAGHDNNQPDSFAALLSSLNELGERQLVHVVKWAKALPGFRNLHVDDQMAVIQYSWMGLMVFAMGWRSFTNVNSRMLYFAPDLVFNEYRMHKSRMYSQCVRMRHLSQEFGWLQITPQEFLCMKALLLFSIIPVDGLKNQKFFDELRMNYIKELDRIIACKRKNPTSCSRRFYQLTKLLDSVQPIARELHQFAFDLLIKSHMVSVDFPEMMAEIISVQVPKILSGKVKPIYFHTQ
T1 sequence (Q96SW2 whole entry partner): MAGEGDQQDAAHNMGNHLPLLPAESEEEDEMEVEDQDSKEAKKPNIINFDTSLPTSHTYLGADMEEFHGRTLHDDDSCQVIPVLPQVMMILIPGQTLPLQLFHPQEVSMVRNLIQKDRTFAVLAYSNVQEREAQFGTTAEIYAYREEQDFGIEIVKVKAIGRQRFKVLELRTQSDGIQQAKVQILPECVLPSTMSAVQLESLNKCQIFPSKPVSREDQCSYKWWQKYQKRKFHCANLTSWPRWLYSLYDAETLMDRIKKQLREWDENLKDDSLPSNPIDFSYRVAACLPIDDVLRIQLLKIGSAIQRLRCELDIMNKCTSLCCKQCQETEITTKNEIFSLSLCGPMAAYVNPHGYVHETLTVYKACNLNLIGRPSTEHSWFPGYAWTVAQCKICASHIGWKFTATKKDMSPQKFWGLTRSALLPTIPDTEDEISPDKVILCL
T2 sequence (P10275 whole entry L702H/T878A): as the sequence (P10275 whole entry T878A) above, with L702H counted along it
T2 sequence (Q96SW2 whole entry partner): as the sequence (Q96SW2 whole entry partner) above

## N#Cc1n[nH]c2c(N3CCC(NC(=O)c4ccc(N5CCC(CN6CCC(n7ccc8c(N9CCC(=O)NC9=O)cccc87)CC6)CC5)cn4)CC3)ccc(Cl)c12 [Example 170, N-[1-(4-Chloro-3-cyano-1H-indazol-7-yl)piperidin-4-yl]-5-[4-({4-[4-(2,4-dioxo-1,3-diazinan-1-yl)-1H-indol-1-yl]piperidin-1-yl}methyl)piperidin-1-yl]pyridine-2-carboxamide]
[1]
  DC50: 1 nM
  Dmax: 100%
[2]
  DC50: 2 nM
  Dmax: 101%

## Cc1ccc(N2CCC(NC(=O)c3ccc(N4CCC(CN5CCN(c6cc7c(cc6F)C(=O)N(C6CCC(=O)NC6=O)C7=O)CC5)CC4)cn3)CC2)c2[nH]cc(C#N)c12 (stereo not shown) [Example 171, N-[1-(3-Cyano-4-methyl-1H-indol-7-yl)piperidin-4-yl]-5-[4-({4-[2-(2,6-dioxopiperidin-3-yl)-6-fluoro-1,3-dioxo-2,3-dihydro-1H-isoindol-5-yl]piperazin-1-yl}methyl)piperidin-1-yl]pyridine-2-carboxamide]
[1]
  DC50: 5 nM
  Dmax: 96%
[2]
  DC50: 36 nM
  Dmax: 85%

## Cc1ccc(N2CCC(NC(=O)c3ccc(N4CCC(CN5CCN(c6ccc7c(c6)CN(C6CCC(=O)NC6=O)C7=O)CC5)CC4)cn3)CC2)c2[nH]cc(C#N)c12 (stereo not shown) [Example 172, N-[1-(3-Cyano-4-methyl-1H-indol-7-yl)piperidin-4-yl]-5-[4-({4-[2-(2,6-dioxopiperidin-3-yl)-1-oxo-2,3-dihydro-1H-isoindol-5-yl]piperazin-1-yl}methyl)piperidin-1-yl]pyridine-2-carboxamide]
[1]
  DC50: 1 nM
  Dmax: 94%
[2]
  DC50: 4 nM
  Dmax: 94%

## N#Cc1c[nH]c2c(N3CCC(NC(=O)c4ccc(N5CCC(CN6CCC(n7ccc8c(N9CCC(=O)NC9=O)cccc87)CC6)CC5)cc4)CC3)ccc(Cl)c12 [Example 173, N-[1-(4-Chloro-3-cyano-1H-indol-7-yl)piperidin-4-yl]-4-[4-({4-[4-(2,4-dioxo-1,3-diazinan-1-yl)-1H-indol-1-yl]piperidin-1-yl}methyl)piperidin-1-yl]benzamide]
[1]
  DC50: 1 nM
  Dmax: 102%
[2]
  DC50: 2 nM
  Dmax: 109%

## N#Cc1c[nH]c2c(C3CCC(NC(=O)c4ccc(N5CCC(CN6CCC(n7ccc8c(N9CCC(=O)NC9=O)cccc87)CC6)CC5)cc4F)CC3)ccc(Cl)c12 (stereo not shown) [Example 174, N-[4-(4-Chloro-3-cyano-1H-indol-7-yl)cyclohexyl]-4-[4-({4-[4-(2,4-dioxo-1,3-diazinan-1-yl)-1H-indol-1-yl]piperidin-1-yl}methyl)piperidin-1-yl]-2-fluorobenzamide]
[1]
  DC50: 3 nM
  Dmax: 106%
[2]
  DC50: 13 nM
  Dmax: 104%

## N#Cc1c[nH]c2c(N3CCC(NC(=O)c4c(F)cc(N5CCC(CN6CCC(n7ccc8c(N9CCC(=O)NC9=O)cccc87)CC6)CC5)cc4F)CC3)ccc(Cl)c12 [Example 175, N-[1-(4-Chloro-3-cyano-1H-indol-7-yl)piperidin-4-yl]-4-[4-({4-[4-(2,4-dioxo-1,3-diazinan-1-yl)-1H-indol-1-yl]piperidin-1-yl}methyl)piperidin-1-yl]-2,6-difluorobenzamide]
[1]
  DC50: 1 nM
  Dmax: 107%
[2]
  DC50: 1 nM
  Dmax: 109%

## N#Cc1c[nH]c2c(N3CCC(NC(=O)c4cnc(N5CCC(CN6CCC(n7ccc8c(N9CCC(=O)NC9=O)cccc87)CC6)CC5)cn4)CC3)ccc(Cl)c12 [Example 176, N-[1-(4-Chloro-3-cyano-1H-indol-7-yl)piperidin-4-yl]-5-[4-({4-[4-(2,4-dioxo-1,3-diazinan-1-yl)-1H-indol-1-yl]piperidin-1-yl}methyl)piperidin-1-yl]pyrazine-2-carb oxamide]
[1]
  DC50: 1 nM
  Dmax: 104%
[2]
  DC50: 3 nM
  Dmax: 102%

## N#Cc1c[nH]c2c(N3CCC(NC(=O)c4ncc(N5CCC(CN6CCC(n7ccc8c(N9CCC(=O)NC9=O)cccc87)CC6)CC5)cn4)CC3)ccc(Cl)c12 [Example 177, N-[1-(4-Chloro-3-cyano-1H-indol-7-yl)piperidin-4-yl]-5-[4-({4-[4-(2,4-dioxo-1,3-diazinan-1-yl)-1H-indol-1-yl]piperidin-1-yl}methyl)piperidin-1-yl]pyrimidine-2-carboxamide]
[1]
  DC50: 2 nM
  Dmax: 107%
[2]
  DC50: 15 nM
  Dmax: 40%

## Cc1cc(N2CCC(CN3CCC(n4ccc5c(N6CCC(=O)NC6=O)cccc54)CC3)CC2)ccc1C(=O)NC1CCN(c2ccc(Cl)c3c(C#N)c[nH]c23)CC1 [Example 178, N-[1-(4-Chloro-3-cyano-1H-indol-7-yl)piperidin-4-yl]-4-[4-({4-[4-(2,4-dioxo-1,3-diazinan-1-yl)-1H-indol-1-yl]piperidin-1-yl}methyl)piperidin-1-yl]-2-methylbenzamide]
[1]
  DC50: 2 nM
  Dmax: 106%
[2]
  DC50: 2 nM
  Dmax: 107%

## N#Cc1c[nH]c2c(N3CCC(NC(=O)c4ccc(N5CCC(CN6CCC(n7ccc8c(N9CCC(=O)NC9=O)cccc87)CC6)CC5)nn4)CC3)ccc(Cl)c12 [Example 179, N-[1-(4-Chloro-3-cyano-1H-indol-7-yl)piperidin-4-yl]-6-[4-({4-[4-(2,4-dioxo-1,3-diazinan-1-yl)-1H-indol-1-yl]piperidin-1-yl}methyl)piperidin-1-yl]pyridazine-3-carboxamide]
[1]
  DC50: 1 nM
  Dmax: 103%
[2]
  DC50: 1 nM
  Dmax: 108%
